Laboratory results: PubChem BioAssay AID330 (DTP/NCI, 2004)
“And” between values parts separate entries of the source, which are not always exact repeats. Identical values can stand only once. Toxic doses and inconclusive results are not listed. Rule for the calls: active = survival T/C of 150% or more; inactive = T/C below 125% in these data.

Test system: P388 leukemia ip, CD2F1 mice, survival T/C
Assay: NCI In Vivo Anticancer Drug Screen. Data for tumor model P388 Leukemia (intraperitoneal) in CD2F1 (CDF1) mice
Details: endpoint: median survival time, higher = longer survival
In short: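 Mice carrying the transplanted tumor received test compound or vehicle. Survival was recorded in each group, and the value is the treated-group measurement divided by that of the vehicle-treated control group.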

[1] = dose: 100.0 mg/kg/injection, schedule: Q01DX001 (ip), vehicle: saline with Tween-80
[2] = dose: 200.0 mg/kg/injection, schedule: Q01DX001 (ip), vehicle: saline with Tween-80
[3] = dose: 400.0 mg/kg/injection, schedule: Q01DX001 (ip), vehicle: saline with Tween-80
[4] = dose: 100.0 mg/kg/injection, schedule: Q04DX003 (ip), vehicle: saline with Tween-80
[5] = dose: 50.0 mg/kg/injection, schedule: Q01DX005 (ip), vehicle: saline with Tween-80
[6] = dose: 100.0 mg/kg/injection, schedule: Q01DX005 (ip), vehicle: saline with Tween-80
[7] = dose: 25.0 mg/kg/injection, schedule: Q01DX009 (ip), vehicle: saline with Tween-80
[8] = dose: 50.0 mg/kg/injection, schedule: Q01DX009 (ip), vehicle: saline with Tween-80
[9] = dose: 15.0 mg/kg/injection, schedule: Q01DX005 (ip), vehicle: saline with Tween-80

Measured: T/C

CCCN1C(=O)C2C3C=CC(C2C1=O)C1C2C(=O)N(CCC)C(=O)C2C31 (configuration not stated)
inactive: [1] 92 % of control | [2] 96 % of control | [3] 101 % of control

CC1CCC(c2ccccc2)(c2ccccc2)C1=O (configuration not stated)
inactive: dose: 100.0 mg/kg/injection, schedule: Q01DX001 (ip), vehicle: Klucel (hydroxypropylcellulose) (HPC) 96 % of control | dose: 200.0 mg/kg/injection, schedule: Q01DX001 (ip), vehicle: Klucel (hydroxypropylcellulose) (HPC) 100 % of control | dose: 400.0 mg/kg/injection, schedule: Q01DX001 (ip), vehicle: Klucel (hydroxypropylcellulose) (HPC) 96 % of control

Cc1nc2[nH]ncc2c(=O)n1-c1ccccc1Cl
inactive: dose: 50.0 mg/kg/injection, schedule: Q01DX005 (ip), vehicle: Klucel (hydroxypropylcellulose) (HPC) 101 % of control | dose: 100.0 mg/kg/injection, schedule: Q01DX005 (ip), vehicle: Klucel (hydroxypropylcellulose) (HPC) 101 % of control | dose: 200.0 mg/kg/injection, schedule: Q01DX005 (ip), vehicle: Klucel (hydroxypropylcellulose) (HPC) 99 % of control

O=C1NC(=O)C2(CCC(O)C2)c2cc[n+]([O-])cc21 (configuration not stated)
inactive: dose: 12.5 mg/kg/injection, schedule: Q01DX005 (ip), vehicle: saline 96 % of control | dose: 25.0 mg/kg/injection, schedule: Q01DX005 (ip), vehicle: saline 105 % of control | dose: 50.0 mg/kg/injection, schedule: Q01DX005 (ip), vehicle: saline 105 % of control | dose: 100.0 mg/kg/injection, schedule: Q01DX005 (ip), vehicle: saline 100 % of control

O=C(c1ccccc1)C(O)O
inactive: dose: 25.0 mg/kg/injection, schedule: Q04DX003 (ip), vehicle: saline with Tween-80 103 % of control | dose: 50.0 mg/kg/injection, schedule: Q04DX003 (ip), vehicle: saline with Tween-80 106 % of control | [4] 106 % of control and 109 % of control

CC(C)CCC(NS(=O)(=O)c1cc(I)c(N)c(I)c1)C(=O)O (configuration not stated)
inactive: [5] 99 % of control | [6] 96 % of control | dose: 200.0 mg/kg/injection, schedule: Q01DX005 (ip), vehicle: saline with Tween-80 103 % of control

COC(=O)/C=C1\C=CC=CC12C(C(=O)OC)c1ccccc1C(C(=O)OC)C2C(=O)OC (configuration not stated)
inactive: dose: 12.5 mg/kg/injection, schedule: Q01DX009 (ip), vehicle: saline with Tween-80 100 % of control | [7] 99 % of control | [8] 100 % of control

CCc1c(NCCCl)c(C(=O)NCCCl)c2nc3ccccc3n2c1NCCCl
inactive: dose: 3.75 mg/kg/injection, schedule: Q01DX005 (ip), vehicle: saline with Tween-80 100 % of control | dose: 7.5 mg/kg/injection, schedule: Q01DX005 (ip), vehicle: saline with Tween-80 106 % of control | [9] 108 % of control

Cc1cc(C)n(-c2ccc(-c3cc(=O)c4ccccc4o3)cc2)n1
inactive: [5] 92 % of control | [6] 90 % of control

NC(Cc1cnc[nH]1)C(=O)NO (configuration not stated)
inactive: dose: 100.0 mg/kg/injection, schedule: Q01DX001 (ip), vehicle: saline 94 % of control | dose: 200.0 mg/kg/injection, schedule: Q01DX001 (ip), vehicle: saline 102 % of control | dose: 400.0 mg/kg/injection, schedule: Q01DX001 (ip), vehicle: saline 94 % of control

CCOc1ccc2nc3cc(N=Nc4ccc5c(N)c6cc(OCC)ccc6nc5c4)ccc3c(N)c2c1
inactive: [7] 98 % of control | [8] 108 % of control | dose: 100.0 mg/kg/injection, schedule: Q01DX009 (ip), vehicle: saline with Tween-80 120 % of control | dose: 400.0 mg/kg/injection, schedule: Q01DX009 (ip), vehicle: saline with Tween-80 120 % of control

O=C(O)C1=CC(c2ccccc2O)=NCCN1
inactive: [9] 97 % of control and 98 % of control | dose: 30.0 mg/kg/injection, schedule: Q01DX005 (ip), vehicle: saline with Tween-80 102 % of control and 105 % of control | dose: 60.0 mg/kg/injection, schedule: Q01DX005 (ip), vehicle: saline with Tween-80 114 % of control and 97 % of control | dose: 120.0 mg/kg/injection, schedule: Q01DX005 (ip), vehicle: saline with Tween-80 103 % of control and 107 % of control

COc1cccc(/C=C/C(=O)c2ccc(Cl)cc2)c1OC
inactive: [4] 100 % of control | dose: 200.0 mg/kg/injection, schedule: Q04DX003 (ip), vehicle: saline with Tween-80 100 % of control | dose: 400.0 mg/kg/injection, schedule: Q04DX003 (ip), vehicle: saline with Tween-80 90 % of control

CCN(CC)c1cccc(Nc2nc3ccccc3s2)c1
inactive: dose: 60.0 mg/kg/injection, schedule: Q01DX005 (ip), vehicle: Klucel (hydroxypropylcellulose) (HPC) 97 % of control | dose: 120.0 mg/kg/injection, schedule: Q01DX005 (ip), vehicle: Klucel (hydroxypropylcellulose) (HPC) 88 % of control | dose: 240.0 mg/kg/injection, schedule: Q01DX005 (ip), vehicle: Klucel (hydroxypropylcellulose) (HPC) 93 % of control

CC1(C)OC(CC(=O)O)C23COC(C(=O)C4(C)C2CCC2(C)C(C5CCOC5)OC(=O)C5OC524)C13 (configuration not stated)
inactive: dose: 0.5 mg/kg/injection, schedule: Q01DX009 (ip), vehicle: saline + alcohol 103 % of control | dose: 1.0 mg/kg/injection, schedule: Q01DX009 (ip), vehicle: saline + alcohol 101 % of control | dose: 2.0 mg/kg/injection, schedule: Q01DX009 (ip), vehicle: saline + alcohol 100 % of control | dose: 4.0 mg/kg/injection, schedule: Q01DX009 (ip), vehicle: saline + alcohol 103 % of control

Cc1nc(N)c(C#N)c(-c2ccccc2)c1-c1ccccc1
inactive: [1] 92 % of control | [2] 90 % of control | [3] 106 % of control

O=C1CNC(=O)C(Cc2c[nH]c3ccccc23)N1 (configuration not stated)
inactive: dose: 50.0 mg/kg/injection, schedule: Q01DX009 (ip), vehicle: saline 100 % of control | dose: 100.0 mg/kg/injection, schedule: Q01DX009 (ip), vehicle: saline 96 % of control | dose: 200.0 mg/kg/injection, schedule: Q01DX009 (ip), vehicle: saline 100 % of control

CN=C(NC)c1ccc(NC(=O)c2cc(OC)cc(C(=O)Nc3ccc(C(=NC)NC)cc3)c2)cc1
inactive: dose: 6.25 mg/kg/injection, schedule: Q01DX005 (ip), vehicle: Klucel (hydroxypropylcellulose) (HPC) 100 % of control | dose: 12.5 mg/kg/injection, schedule: Q01DX005 (ip), vehicle: Klucel (hydroxypropylcellulose) (HPC) 110 % of control | dose: 25.0 mg/kg/injection, schedule: Q01DX005 (ip), vehicle: Klucel (hydroxypropylcellulose) (HPC) 110 % of control

CCOC(=O)Nc1nc2c(SC#N)cc(C)cc2s1
inactive: dose: 12.5 mg/kg/injection, schedule: Q01DX009 (ip), vehicle: Klucel (hydroxypropylcellulose) (HPC) 103 % of control | dose: 25.0 mg/kg/injection, schedule: Q01DX009 (ip), vehicle: Klucel (hydroxypropylcellulose) (HPC) 96 % of control | dose: 50.0 mg/kg/injection, schedule: Q01DX009 (ip), vehicle: Klucel (hydroxypropylcellulose) (HPC) 88 % of control and 96 % of control

CC1CC(C)(C)C2=NCCN21 (configuration not stated)
inactive: dose: 6.25 mg/kg/injection, schedule: Q01DX009 (ip), vehicle: water 105 % of control | dose: 12.5 mg/kg/injection, schedule: Q01DX009 (ip), vehicle: water 100 % of control | dose: 15.0 mg/kg/injection, schedule: Q01DX005 (ip), vehicle: saline 106 % of control | dose: 25.0 mg/kg/injection, schedule: Q01DX009 (ip), vehicle: water 107 % of control | dose: 30.0 mg/kg/injection, schedule: Q01DX005 (ip), vehicle: saline 106 % of control | dose: 50.0 mg/kg/injection, schedule: Q01DX009 (ip), vehicle: water 107 % of control | dose: 60.0 mg/kg/injection, schedule: Q01DX005 (ip), vehicle: saline 99 % of control and 100 % of control
